Data set [1] deals with T1, 5-HT3 receptor (Cavia porcellus, UniProt O70212).
T1 construct: Distal colons were excised from male Hartley guinea pigs; from tissue; host or cells: distal colon strips of male Hartley guinea pigs
T1 sequence (O70212 20-490): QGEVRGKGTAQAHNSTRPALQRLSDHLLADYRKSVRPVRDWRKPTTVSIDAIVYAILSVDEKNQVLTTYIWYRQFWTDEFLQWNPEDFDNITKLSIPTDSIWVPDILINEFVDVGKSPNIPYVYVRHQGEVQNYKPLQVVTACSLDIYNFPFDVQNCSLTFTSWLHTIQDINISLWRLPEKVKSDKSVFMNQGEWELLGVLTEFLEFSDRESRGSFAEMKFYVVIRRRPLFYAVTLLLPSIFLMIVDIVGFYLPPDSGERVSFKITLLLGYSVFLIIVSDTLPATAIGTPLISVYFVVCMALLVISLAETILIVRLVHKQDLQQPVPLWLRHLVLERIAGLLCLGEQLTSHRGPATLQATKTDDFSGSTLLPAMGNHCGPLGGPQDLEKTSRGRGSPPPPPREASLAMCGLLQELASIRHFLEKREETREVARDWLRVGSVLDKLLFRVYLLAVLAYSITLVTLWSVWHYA
In words: 5-HT3 receptor agonistic activity: contractile response of isolated guinea pig distal colon strips. The data set is classed as cell-based. To be noted: read-out: Max. response. The text has this: Distal colons were excised from male Hartley guinea pigs (500 to 800 g) to prepare strips of about 20 mm.
Each strip was longitudinally suspended in a Magnus tube, and contractile response was isometrically measured.

The test system of data set [2] is 5-HT3 receptor. The data set is described as follows: Receptor binding experiment.
Data set [3] relates to ICR male mice. In words: Toxicity after i.v. administration to ICR male mice. The data set is classed as in vivo. To be noted: 100 mg/kg i.v., 8 to 9 weeks of age, n=5 to 6. The text has this:
Being low in toxicity, the compounds of the present invention are suitable for use as medicines.

Where a name gives a salt, the structure may show the parent alone.

In the case of `c1ccc2c(c1)Cc1sc(Cc3c[nH]cn3)nc1-2` [Example 1, 2-(4-imidazolylmethyl)-8H-indeno[1,2-d]thiazole], the Emax in data set [1] stood at 89.9%. Moreover, in data set [2], the “affinity for the 5-HT3 receptor” value was “high affinity”. In data set [3], the side effects result is “do not cause serious grave side effects”.

Turning to `O=C(O)/C=C/C(=O)O.c1ccc2c(c1)CCc1sc(Cc3c[nH]cn3)nc1-2` [Example 3, 2-(4-Imidazolylmethyl)-4,5-dihydronaphtho[1,2-d]thiazole fumarate], the Emax in data set [1] turned out to be 80.3%. Besides, the side effects entry in data set [3] is listed as “do not cause serious grave side effects”.

With `c1ccc2c(c1)CCCc1sc(Cc3c[nH]cn3)nc1-2` [Example 4, 2-(4-Imidazolylmethyl)-5,6-dihydro-4H-benzo[6,7]-cyclohepto[1,2-d]thiazole fumarate], the Emax in data set [1] worked out at 50%.

Take `c1ccc2c(c1)Cc1sc(Cn3ccnc3)nc1-2` [Example 10, 2-(1-Imidazolylmethyl)-8H-indeno[1,2-d]thiazole fumarate]: in data set [1], the Emax amounted to 60.9%.

Take `Cn1cncc1Cc1nc2c(s1)Cc1ccccc1-2` [Example 15, 2-[(1-Methyl-5-imidazolyl)methyl]-8H-indeno[1,2-d]thiazole]: the Emax in data set [1] was determined as 42.6%.

On to `c1ccc2c(c1)ccc1sc(Cn3ccnc3)nc12` [Example 30, 2-(1-imidazolylmethyl)naphtho[1,2-d]thiazole], for which the Emax in data set [1] worked out at 78.2%.

The record behind these values is patent US5565479A, “Condensed thiazole derivative, production process thereof and pharmaceutical composition thereof” (Yamanouchi Pharmaceutical Co., Ltd., priority 1992, dated 1996).
